Test results from patent publication US8518882B2, “Methods and compositions for ameliorating or inhibiting decline in memory or intelligence or improving same” (priority 1998, dated 2013).

Columns and labels:
gerbils = experiment: Working memory and reference memory assay in gerbils; format: in vivo; details: 0.1% UMP diet for four weeks
Source text: Groups of ten gerbils fed control or 0.1% UMP diet for four weeks and trained to successfully find all of the food pellets as described above were then given a modified test in which only two arms of the maze (but always the same two) contained food pellet rewards. In this test, a working memory error is one in which a gerbil revisits an arm from which it has already taken the pellet that day.

[1] = Plasma uridine levels after oral UMP in humans; format: in vivo; details: 500, 1000 or 2000 mg UMP orally; baseline and 1, 2, 4, 8 hr
Description: 1-milliliter (mL) samples of heparinized plasma were spiked with 1 μg fluoro-uridine for use as an internal standard, then deproteinized by adding methanol (5 mL).
All steps were performed at 4° C. Boronate affinity columns (Affigel-601, Bio-Rad) were primed with two 5-mL ammonium acetate washes, samples were applied, and columns were washed again with ammonium acetate, after which the nucleosides were eluted with 0.1 N formic acid (7 mL). Eluates were lyophilized, then reconstituted in 100 μL water for HPLC analysis.
HPLC analysis was performed using a Beckman System Gold apparatus (Beckman Instruments) equipped with a Rainin Dynamax Microsorb C18 column (3 μm packing; 4.6×100 mm) at room temperature. The standard HPLC method is described in Lopez-Coviella et al, (J. Neurochem 65: 889-894, 1995). For modified HPLC, an isocratic elution buffer was used containing 0.004 N potassium phosphate buffer (pH 5.8) and 0.1% methanol instead of formic acid, flowing at 1 mL/min and heated to 35°.
Eight healthy subjects (5 male, 3 female, 27-67 years old) were instructed to fast overnight and given sequentially increasing doses (500, 1000, and 2000 mg) of disodium UMP (Numico, Wageningen, NL) at 7-8 AM on each of three days, separated by at least a three-day washout period. All subjects were given lunch. Blood samples were drawn over an eight-hour period into heparinized tubes. […]

neurofilament-70 (NF-70) = experiment: Western blot of NF-70 in striatum of aged rats on UMP diet; format: in vivo
Description: (§1) Data were represented according to UMP treatment of six to sixteen measurements each group (means±S.E.M.). One-way ANOVA with Turkey's HSD post hoc tests were used to compare the difference among the treatments the Newman-Keuls multiple range test was used for the data in FIG. 13.
(§2) Striatal tissues were placed in Eppendorf tubes containing 200 μl lysis buffer (60 mM Tris-HCl, 4% SDS, 20% glycerol, 1 mM dithiothreitol, 1 mM AEBSF, 8 μM aprotinin, 500 μM bestatin, 15 μM E64, 200 μM leupeptin, 10 μM pepstatin A). The samples were sonicated, boiled (10 min), and centrifuged (14,000 g for 1 min at room temperature) The supernatant fluid was transferred to a clean tube, and total protein content was determined using the Bicinchoninic Acid assay (Sigma, St. Louis, Mo.).
(§3) Equal amounts of protein (40 μg protein/lane) were loaded for sodium dodecyl sulfate-polyacrylamide gel electrophoresis (4-15% SDS PAGE; Bio-Rad, Hercules, Calif.). Prior to gel electrophoresis, bromphenol blue solution (0.07%) was added to each sample. Proteins were separated, transferred onto polyvinylidene difluoride (PVDF) membranes (Immobilon-P, Millipore), and blocked with 5% bovine serum albumin (Tris-buffered saline/0.15% Tween 20) for 1 h. After 3 10 min rinses in Tris-buffered saline (TBST), blots were incubated in TBST with various antibodies against the proteins of interest, including NF-70, NF-M (1: 2000, 1: 5000, respectively; Calbiochem, La Jolla, Calif.) at 4° C. overnight on an orbital shaker. […] Films were digitized using a Supervista S-12 scanner with a transparency adapter (UMAX Technologies, Freemont, Calif.). Analysis was performed using the public domain NIH Image program (NIH V.1.61).

neurofilament-M (NF-M) = experiment: Western blot of NF-M in striatum of aged rats on UMP diet; format: in vivo
Description: as §1, §2, §3

EC and IC rats [2] = experiment: Hidden platform water maze task and probe test in EC and IC rats; format: in vivo, Sprague Dawley rats; details: 0.1% UMP diet
Description: Behavioral training was carried out between 10:00 AM-2:00 PM, in a blinded manner. […] A different starting point was used on each trial such that each starting point was used once each day. […] After mounting the platform, rats remained on the platform for 20 seconds. Following each trial, animals were removed from the maze and placed in a holding cage for a 30 second inter-trial interval (ITI). The latency to mount the escape platform was used as a measure of task acquisition.
For this, the platform was removed and the swim path and time spent searching in the quadrant of the pool that previously contained the platform were measured over 60 s. This provides a measurement for the retention of spatial memory and indicates whether a spatial strategy was used during hidden platform training.

[3] = Body weight of aged rats on UMP diet; details: 2.5% UMP·2Na+ diet, 0-6 weeks
Source text: Male middle aged Fischer 344 rats, 22-24 months old at the time of doing microdialysis, were obtained from National Institute on Aging (Harlan Sprague-Dawley, Indianapolis, Ind.). Rats were housed individually under standard husbandry conditions and exposed to 12 hr light/dark cycle with food and water provided ad libitum.
Rats were acclimated to the animal facility for more than 7 days before fed a control laboratory diet (Teklad Global 16% protein rodent diet, TD.00217, Harlan Telclad, Madison, Wis.), or this diet fortified with UMP·2Na^+ (2.5%, TD.03398, UMP·2Na^+; Numico Research, the Netherlands) for 6 weeks.
Rats were not fed with the research diet until at least 7 days later after their arrival. They were weighed at the time of beginning feeding (t=0), as well as 1, 2, 4, 6 weeks later. At time 0, rats were randomly assigned into two groups.

[4] = test system: acetylcholine release from neurons in the corpus striatum; experiment: Basal acetylcholine release in corpus striatum of rats on dietary UMP; format: in vivo
EC and IC rats [5] = experiment: Visible platform water maze task in EC and IC rats; format: in vivo, Sprague Dawley rats; details: UMP-supplemented diet
Source text: On each trial the animal was placed into the tank facing the wall at one of four designated start points (N, S, E, and W) and allowed to escape onto the visibly cued platform. A different starting point was used on each trial such that each starting point was used each day. In addition, the visible escape platform was placed in a different quadrant on each trial such that each of the four quadrants contained the escape platform once each day. […] After mounting the platform, rats remained on the platform for 20 sec. Following each trial, animals were removed from the maze and placed in a holding cage for a 30-sec ITI.

[6] = test system: dopamine (DA) release in striatal dialysate; experiment: In vivo microdialysis of striatal dopamine and metabolites in aged rats on UMP diet; set-up: species or system Fischer 344 rats; details: control vs. UMP-1 week vs. UMP-6 weeks, 2.5% UMP diet

SMILES: O=c1ccn([C@@H]2O[C@H](COP(=O)([O-])[O-])[C@@H](O)[C@H]2O)c(=O)[nH]1.[Na+].[Na+] [UMP, uridine-5′-monophosphate disodium]
- Reference memory errors (gerbils): reduced numbers
- Working memory errors (gerbils): reduced numbers
- Plasma uridine levels [1]: increased in response to oral UMP in a dose-dependent fashion
- NF-70 level compared to control group (neurofilament-70 (NF-70); UMP diet 1 week): did not increase
- NF-70 level, of control values (neurofilament-70 (NF-70); UMP diet 6 weeks, striatum, p<0.05): 182±25%
- NF-70 level in striatum, of control values (second statement) (neurofilament-70 (NF-70); feeding time not given): 204±36%
- NF-M level compared to control group (neurofilament-M (NF-M); UMP diet 1 week): did not increase
- NF-M level, of control values (neurofilament-M (NF-M); UMP diet 6 weeks, striatum, p<0.01): 221±34%
- NF-M level in striatum, of control values (second statement) (neurofilament-M (NF-M); feeding time not given): 221±34%
- Rate of acquisition of hidden platform task (EC and IC rats [2]; EC rats, vs EC-CONT, P<0.09): acquired the task at a faster rate
- Rate of acquisition of hidden platform task (EC and IC rats [2]; IC rats, vs IC-CONT, P<0.05): acquired the task at a significantly faster rate
- Time in correct quadrant, 60 s probe test (EC and IC rats [2]; IC rats, vs IC-CONT, p<0.01): spent significantly more time in the correct quadrant
- Body weight [3]: neither UMP-diet (vs. control) nor UMP time interaction affected body weight
- Basal release of acetylcholine in corpus striatum [4]: increase the basal release
- Striatal-based (stimulus-response) memory, visible platform task (EC and IC rats [5]): little or no effect
- Basal DA levels in dialysate [6]: did not affect
- Basal DOPAC levels in dialysate [6]: no effects
- Basal HVA levels in dialysate [6]: no effects
